This note sets out measurements from BindingDB's records for patent US11547697 (Millennium Pharmaceuticals, 2023).

Common to all, as to assay: Inhibition Assay of PI3K
Assay [1] addresses Phosphatidylinositol 4,5-bisphosphate 3-kinase catalytic subunit gamma isoform (Homo sapiens, UniProt P48736).
The target in assay [2] is T1, Phosphatidylinositol 4,5-bisphosphate 3-kinase catalytic subunit delta isoform (Homo sapiens, UniProt O00329).
T1 sequence (O00329 whole entry): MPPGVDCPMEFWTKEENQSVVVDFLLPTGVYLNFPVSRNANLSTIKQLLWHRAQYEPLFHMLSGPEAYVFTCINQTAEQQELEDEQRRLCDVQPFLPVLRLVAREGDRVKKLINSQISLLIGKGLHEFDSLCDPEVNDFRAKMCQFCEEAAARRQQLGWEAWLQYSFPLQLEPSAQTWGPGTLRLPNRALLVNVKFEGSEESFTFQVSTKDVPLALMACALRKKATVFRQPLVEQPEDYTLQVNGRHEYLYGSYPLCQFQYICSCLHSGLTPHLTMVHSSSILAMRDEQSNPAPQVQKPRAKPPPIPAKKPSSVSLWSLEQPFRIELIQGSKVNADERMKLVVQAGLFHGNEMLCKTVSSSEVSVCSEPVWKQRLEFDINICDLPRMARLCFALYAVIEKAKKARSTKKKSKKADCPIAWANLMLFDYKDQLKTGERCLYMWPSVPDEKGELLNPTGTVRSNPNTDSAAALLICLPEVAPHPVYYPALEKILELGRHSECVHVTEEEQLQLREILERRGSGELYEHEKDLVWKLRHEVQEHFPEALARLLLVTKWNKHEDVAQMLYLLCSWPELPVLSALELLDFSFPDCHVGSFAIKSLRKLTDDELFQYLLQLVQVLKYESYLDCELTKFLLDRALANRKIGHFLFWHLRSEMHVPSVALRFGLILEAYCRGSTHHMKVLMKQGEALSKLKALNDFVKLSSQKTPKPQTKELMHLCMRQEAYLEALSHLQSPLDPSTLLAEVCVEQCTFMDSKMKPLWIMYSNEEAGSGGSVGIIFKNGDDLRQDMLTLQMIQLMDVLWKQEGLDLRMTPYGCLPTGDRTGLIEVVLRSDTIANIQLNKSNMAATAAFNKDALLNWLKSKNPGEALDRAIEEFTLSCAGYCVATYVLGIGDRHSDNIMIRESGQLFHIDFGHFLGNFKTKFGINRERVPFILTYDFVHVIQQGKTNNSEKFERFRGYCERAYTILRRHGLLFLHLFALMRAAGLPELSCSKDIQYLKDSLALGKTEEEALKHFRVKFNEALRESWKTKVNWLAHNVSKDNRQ

Assay [3] concerns the target Phosphatidylinositol 4,5-bisphosphate 3-kinase catalytic subunit beta isoform (Homo sapiens, UniProt P42338).

Sequence of Phosphatidylinositol 4,5-bisphosphate 3-kinase catalytic subunit gamma isoform (P48736 whole entry, canonical isoform): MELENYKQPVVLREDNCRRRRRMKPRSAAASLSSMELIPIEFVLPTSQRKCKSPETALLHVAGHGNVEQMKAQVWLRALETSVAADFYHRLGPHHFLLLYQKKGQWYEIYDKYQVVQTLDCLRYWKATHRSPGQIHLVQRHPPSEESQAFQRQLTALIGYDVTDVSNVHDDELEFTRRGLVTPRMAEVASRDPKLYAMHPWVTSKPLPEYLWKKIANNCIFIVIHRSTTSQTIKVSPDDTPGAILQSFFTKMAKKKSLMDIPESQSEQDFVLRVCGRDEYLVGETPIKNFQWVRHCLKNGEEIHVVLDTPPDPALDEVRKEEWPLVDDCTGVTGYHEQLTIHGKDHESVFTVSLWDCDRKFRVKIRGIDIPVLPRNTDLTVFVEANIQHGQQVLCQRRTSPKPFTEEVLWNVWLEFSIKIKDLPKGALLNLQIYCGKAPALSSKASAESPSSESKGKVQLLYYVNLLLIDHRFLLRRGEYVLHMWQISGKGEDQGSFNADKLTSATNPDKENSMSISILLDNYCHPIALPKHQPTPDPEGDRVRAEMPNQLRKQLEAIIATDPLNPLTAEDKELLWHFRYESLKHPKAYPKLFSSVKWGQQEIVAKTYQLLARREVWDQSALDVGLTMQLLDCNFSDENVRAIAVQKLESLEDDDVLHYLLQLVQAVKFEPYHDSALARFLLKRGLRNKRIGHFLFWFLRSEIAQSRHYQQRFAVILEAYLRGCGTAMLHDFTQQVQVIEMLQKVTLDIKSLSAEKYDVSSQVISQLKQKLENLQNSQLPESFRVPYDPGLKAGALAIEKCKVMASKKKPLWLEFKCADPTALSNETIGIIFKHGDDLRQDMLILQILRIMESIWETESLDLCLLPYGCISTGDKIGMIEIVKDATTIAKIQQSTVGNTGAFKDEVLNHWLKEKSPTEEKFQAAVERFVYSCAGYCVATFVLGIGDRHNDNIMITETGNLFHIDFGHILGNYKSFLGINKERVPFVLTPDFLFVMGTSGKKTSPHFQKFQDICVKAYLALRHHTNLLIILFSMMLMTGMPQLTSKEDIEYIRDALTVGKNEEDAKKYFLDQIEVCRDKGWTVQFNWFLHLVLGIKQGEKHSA
Sequence of Phosphatidylinositol 4,5-bisphosphate 3-kinase catalytic subunit beta isoform (P42338 whole entry, canonical isoform): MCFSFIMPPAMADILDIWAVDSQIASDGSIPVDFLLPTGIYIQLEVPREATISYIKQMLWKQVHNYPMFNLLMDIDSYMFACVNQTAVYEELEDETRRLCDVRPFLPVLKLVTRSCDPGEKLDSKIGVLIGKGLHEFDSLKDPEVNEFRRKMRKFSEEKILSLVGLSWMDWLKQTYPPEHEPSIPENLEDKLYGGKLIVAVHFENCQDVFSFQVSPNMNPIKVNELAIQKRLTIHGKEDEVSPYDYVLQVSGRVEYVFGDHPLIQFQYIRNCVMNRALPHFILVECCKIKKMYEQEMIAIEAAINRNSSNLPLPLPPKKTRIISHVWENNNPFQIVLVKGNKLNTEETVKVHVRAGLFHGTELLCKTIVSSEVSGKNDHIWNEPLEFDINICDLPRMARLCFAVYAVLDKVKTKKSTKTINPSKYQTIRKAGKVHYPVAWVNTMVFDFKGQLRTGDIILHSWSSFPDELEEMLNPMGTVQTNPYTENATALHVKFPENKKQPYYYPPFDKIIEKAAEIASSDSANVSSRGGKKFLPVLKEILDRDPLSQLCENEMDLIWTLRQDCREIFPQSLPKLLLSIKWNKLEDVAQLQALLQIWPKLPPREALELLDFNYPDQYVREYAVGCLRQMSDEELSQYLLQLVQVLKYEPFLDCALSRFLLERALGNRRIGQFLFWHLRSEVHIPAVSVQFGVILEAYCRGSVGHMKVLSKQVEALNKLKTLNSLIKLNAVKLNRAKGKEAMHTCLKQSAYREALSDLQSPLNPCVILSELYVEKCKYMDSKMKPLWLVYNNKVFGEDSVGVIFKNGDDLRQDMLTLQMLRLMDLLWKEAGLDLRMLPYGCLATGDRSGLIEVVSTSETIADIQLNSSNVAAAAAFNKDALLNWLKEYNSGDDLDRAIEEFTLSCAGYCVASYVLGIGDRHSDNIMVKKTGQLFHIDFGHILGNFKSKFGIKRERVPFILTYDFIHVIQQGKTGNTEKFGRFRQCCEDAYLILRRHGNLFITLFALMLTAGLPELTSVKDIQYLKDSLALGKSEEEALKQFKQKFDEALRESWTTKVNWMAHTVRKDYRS

What is called IC50 is the concentration that gives 50% inhibition. Read a low IC50 as inhibition by little substance. For the compound `Nc1nc2cc(-c3ccc4nnc(-c5cccnc5)n4c3)ccc2o1` [US11547697, Compound 300], the IC50 in assay [1] and in assay [2] was more than 10 µM each time. On to `Nc1nc2cc(-c3ccc4ncc(N5CC(N6CCN(CC7CC7)CC6)C5)nc4c3)ccc2o1` [US11547697, Compound 335], for which, in assay [1], the half-maximal inhibitory concentration (IC50) is more than 10 µM. Compound `Nc1nc2cc(-c3ccc4ncc(C(=O)NCCN5CCCC5)n4c3)ccc2o1` [US11547697, Compound 296] gave an IC50 in assay [1] of more than 10 µM. The same measure, in the same setting: next, `CC1(C)CN(c2cnc3ccc(-c4ccc5oc(N)nc5c4)cc3n2)CCN1` [US11547697, Compound 336]: more than 10 µM. On to `Nc1nc2cc(-c3ccc4ncc(C(=O)N5CCNCC5)n4c3)ccc2o1` [US11547697, Compound 111], for which the half-maximal inhibitory concentration (IC50) in assay [1] and in assay [2] was more than 10 µM throughout.

In the case of `COC(=O)N1CCC(n2ncc3c(N4CCOCC4)nc(-c4ccc5oc(N)nc5c4)nc32)CC1` [US11547697, Compound 330], the IC50 in assay [1] and in assay [2] was more than 10 µM each time.

For the compound `Nc1nc2cc(-c3ccc4ncn(CCCN5CCCC5)c(=O)c4c3)ccc2o1` [US11547697, Compound 271], the IC50 in assay [1] is more than 10 µM. On the same count and under the same terms, the figure for `CN1CCC(N(C)C(=O)c2cnc3ccc(-c4ccc5oc(N)nc5c4)cn23)CC1` [US11547697, Compound 165] is more than 10 µM. In the case of `Cc1cc2oc(N)nc2cc1-c1ccc2ncc(N3CCN[C@@H](C)C3)nc2c1` [US11547697, Compound 351], the IC50 in assay [1] and in assay [2] was more than 10 µM each time. In the case of `CN1CCC(c2cnc3ccc(-c4ccc5oc(N)nc5c4)cc3n2)CC1` [US11547697, Compound 385], the IC50 in assay [1] and in assay [2] was more than 10 µM throughout. In the case of `Nc1nc2cc(-c3ccc4ncc(N5CC(N6CCOCC6)C5)nc4c3)c(Cl)cc2o1` [US11547697, Compound 371], the IC50 in assay [1] and in assay [2] was more than 10 µM in each case. For the compound `CNc1nc2cc(-c3ccc4ncc(C(=O)N5CCOCC5)n4c3)ccc2o1` [US11547697, Compound 406], the IC50 in assay [1] and in assay [2] was more than 10 µM in each case.

For the compound `CC(C)(N)C(=O)N1CCN(c2cnc3ccc(-c4ccc5oc(N)nc5c4)cc3n2)CC1` [US11547697, Compound 213], the concentration for half-maximal inhibition (IC50) in assay [1] is more than 10 µM. Same read-out and setting: the figure for `CN1CCC(n2cnc3ccc(-c4ccc5oc(N)nc5c4)cc3c2=O)CC1` [US11547697, Compound 36] is more than 10 µM.

In assay [1], `Nc1nc2cc(-c3ccc4ncc(N5CCC(N)CC5)nc4c3)ccc2o1` [US11547697, Compound 168] came in with an IC50 of more than 10 µM.

In the case of `Cc1ccn(C2CCN(c3cnc4ccc(-c5ccc6oc(N)nc6c5)cc4n3)CC2)n1` [US11547697, Compound 223], the IC50 in assay [3] and in assay [2] was more than 10 µM each time. `Cc1c(-c2ccc3oc(N)nc3c2)ccc2ncc(N3CCN[C@@H](C)C3)nc12` [US11547697, Compound 374] displayed an IC50 in assay [1] of more than 10 µM. On the same count and under the same terms, the figure for `CN1CCC(n2cnc3ccc(-c4cnc(Cl)c(NS(C)(=O)=O)c4)cc3c2=O)CC1` [US11547697, Compound 526] is more than 10 µM. With `NC(=O)[C@@H]1CCCN1C(=O)C1CN(c2cnc3ccc(-c4ccc5oc(N)nc5c4)cc3n2)C1` [US11547697, Compound 283], the IC50 in assay [3] and in assay [2] was more than 10 µM throughout.

In the case of `Nc1nc2cc(-c3ccc4ncc(C(=O)N5CCC(F)(F)CC5)n4c3)ccc2o1` [US11547697, Compound 501], the concentration for half-maximal inhibition (IC50) in assay [3] and in assay [2] was more than 10 µM throughout. With `Nc1nc2cc(-c3ccc4ncn(C5CC5)c(=O)c4c3)ccc2o1` [US11547697, Compound 254], the IC50 in assay [3] and in assay [2] was more than 10 µM in each case. `N#Cc1cnc2ccc(-c3ccc4oc(N)nc4c3)cc2c1` [US11547697, Compound 93]: the IC50 in assay [3] and in assay [2] was more than 10 µM in each case. For the compound `Nc1nc2cc(-c3ccc4ncc(C(=O)N5CC[C@H](F)C5)n4c3)ccc2o1` [US11547697, Compound 476], the IC50 in assay [3] and in assay [2] was more than 10 µM each time. In the case of `Cc1ccc(-c2cnc3ccc(-c4ccc5oc(N)nc5c4)cc3n2)cn1` [US11547697, Compound 194], the IC50 in assay [3] and in assay [2] was more than 10 µM throughout. As to `Nc1nc2cc(-c3cc4nccc(-c5ccncc5)c4s3)ccc2o1` [US11547697, Compound 14], the IC50 in assay [3] and in assay [2] was more than 10 µM in each case.

For `CCN1CCN(C(=O)c2cnc3ccc(-c4ccc5oc(N)nc5c4)cn23)CC1` [US11547697, Compound 141], the IC50 in assay [3] and in assay [2] was more than 10 µM in each case.

`CNC(=O)CN1CCN(c2cnc3ccc(-c4ccc5oc(N)nc5c4)cc3n2)CC1` [US11547697, Compound 120] showed an IC50 in assay [1] of more than 10 µM. Consider `Nc1nc2cc(-c3ccc4ncc(N5CCNCC5=O)nc4c3)ccc2o1` [US11547697, Compound 389], for which the IC50 in assay [3] and in assay [2] was more than 10 µM each time. As to `O=C(c1cnc2ccc(-c3ccc(Cl)c(NS(=O)(=O)c4ccccc4)c3)cn12)N1CCOCC1` [US11547697, Compound 459], the IC50 in assay [3] and in assay [2] was more than 10 µM in each case. Take `C[C@@H]1CN(c2cnc3ccc(-c4ccc5oc(N)nc5c4)cc3n2)C[C@H](C)O1` [US11547697, Compound 132]: the IC50 in assay [3] and in assay [2] was more than 10 µM each time. For the compound `COc1ccc(-c2ccc3ncc(C(=O)N4CCOCC4)n3c2)cc1NS(=O)(=O)c1ccccc1` [US11547697, Compound 455], the IC50 in assay [3] and in assay [2] was more than 10 µM throughout.

On to `Nc1nc2cc(-c3ccc4ncc(C(=O)NC5CCC(O)CC5)n4c3)ccc2o1` (stereo not given) [US11547697, Compound 143], for which the IC50 in assay [1] was less than 0.1 µM.

Take `Nc1nc2cc(-c3ccc4ncc(C(=O)N5CCS(=O)(=O)CC5)n4c3)ccc2o1` [US11547697, Compound 107]: the IC50 in assay [3] and in assay [2] was more than 10 µM throughout. Consider `Nc1nc2cc(-c3ccc4ncc(C(=O)N5CCC6(C5)OCCO6)n4c3)ccc2o1` [US11547697, Compound 499], for which the IC50 in assay [3] and in assay [2] was more than 10 µM each time. As to `Cc1c(-c2ccc3oc(N)nc3c2)ccc2ncc(N3CC(N4CCNCC4)C3)nc12` [US11547697, Compound 386], the IC50 in assay [3] and in assay [2] was more than 10 µM throughout. Take `Nc1nc2cc(-c3ccc4ncc(N5CC(N6CCOCC6)C5)nc4c3)ccc2o1` [US11547697, Compound 273]: the half-maximal inhibitory concentration (IC50) in assay [3] and in assay [2] was more than 10 µM in each case. Regarding `C[C@@H]1CN(C(=O)c2cnc3ccc(-c4ccc5oc(N)nc5c4)cn23)C[C@H](C)O1` [US11547697, Compound 106], the IC50 in assay [3] and in assay [2] was more than 10 µM each time.

For `Nc1nc2cc(-c3c[nH]c4nccc(-c5ccncc5)c34)ccc2o1` [US11547697, Compound 25], the IC50 in assay [3] and in assay [2] was more than 10 µM throughout.

Take `Cc1ccn(C2CCN(C(=O)c3cnc4ccc(-c5ccc6oc(N)nc6c5)cn34)CC2)n1` [US11547697, Compound 297]: the IC50 in assay [3] and in assay [2] was more than 10 µM each time. As for `Nc1noc2ccc(-c3ccc4nccc(-c5ccncc5)c4c3)cc12` [US11547697, Compound 18], the IC50 in assay [3] and in assay [2] was more than 10 µM in each case. Take `CN1CCN(C(=O)c2cnc3ccc(-c4ccc5oc(N)nc5c4)nn23)CC1` [US11547697, Compound 104]: the IC50 in assay [3] and in assay [2] was more than 10 µM throughout.

For the compound `Nc1nc2cc(-c3ccc4ncc(C(=O)N5CCC(F)CC5)n4c3)ccc2o1` [US11547697, Compound 503], the IC50 in assay [3] and in assay [2] was more than 10 µM each time. Consider `Nc1nc2cc(-c3ccc4ncc(N5CCC(n6cccn6)CC5)nc4c3)ccc2o1` [US11547697, Compound 337], for which the IC50 in assay [3] and in assay [2] was more than 10 µM throughout. Regarding `C[C@H]1CN(C2CN(c3cnc4ccc(-c5ccc6oc(N)nc6c5)cc4n3)C2)CCN1` [US11547697, Compound 350], the IC50 in assay [1] is more than 10 µM. With `Nc1nc2ccc(-c3ccc4ncc(N5CCOCC5)nc4c3)cc2s1` [US11547697, Compound 114], the IC50 in assay [3] and in assay [2] was more than 10 µM throughout. Consider `Nc1nc2cc(-c3ccc4ncc(C(=O)N5CCC(N6CC(F)(F)C6)C5)n4c3)ccc2o1` (stereo not given) [US11547697, Compound 498], for which the IC50 in assay [3] and in assay [2] was more than 10 µM each time. With `CN1CCN([C@@H]2CCN(c3cnc4ccc(-c5ccc6oc(N)nc6c5)cc4n3)C2)CC1` [US11547697, Compound 379], the IC50 in assay [1] was more than 10 µM.
